Experimental findings from US11021706B2, “Antisense antibacterial compounds and methods” (priority 2014, dated 2021) are described below.

The IC75 is the point of the concentration-response curve where the effect stands at 75%.

One series relates to Klebsiella pneuomoniae. Kind of series: MIC of meropenem with added NDM-1-targeted PPMO. The format is cell-based. The settings on record: without PPMO, data not shown.
Series [1] deals with adeA-expressing Acinetobacter baumanii. Kind of series: MIC of gentamicin, tobramycin and tetracycline with added adeA-targeted PPMO (CLSI microdilution). It is filed as cell-based. The settings on record: concentration dependent. For orientation: Broth dilution looks for growth in wells or tubes with falling amounts of substance.
Series [2] has as its system B. cenocepacia K56-2. Kind of series: Bcc growth in artificial CF sputum. The format is cell-based. The method, then: B. cenocepacia K56-2 was incubated alone or in the presence of either a scrambled sequence (Scr) placebo PPMO or acpP PPMO (PPMO #15, Table 2C) at 10 μM or 20 μM concentration. Media or PPMO was dosed at 2, 8 and 12 hours. Samples were plated at 24 hours and CFU/ml was determined.
PPMOs were tested to determine whether they retained their activity in sputum. Using a well-described method for making “artificial CF sputum,” experiments were conducted to see whether a PPMO could reduce the burden of Bcc in this environment (FIG. 12). B. cenocepacia K56-2 was incubated alone or in the presence of either a scrambled-sequence (Scr) placebo PPMO or acpP PPMO (PPMO #15). The acpP-targeted PPMO has the following sequence: GTCCATTACCC (PPMO #15; SEQ ID NO: 25). The PPMO was conjugated at its 5′ end to the C-terminal β-alanine residue of (RFF)3RXB (SEQ ID NO: 41). Media or PPMO was dosed at 2, 8 and 12 hours. Samples were plated at 24 hours and CFU/ml was determined. The acpP PPMO was able to reduce the organism burden (both at 10 and 20 μM dosing). At 10 μM dosing, there was an approximately 2-log reduction in CFU/ml by 24-hours compared to no treatment control. At 20 μM dosing, there was a >3-log reduction seen. This reduction was apparent as early as 8 hours in the 20 μM group and 12 hours in the 10 μM group. These experiments indicate that PPMOs remain active even in the thick viscous sputum that is seen in CF patients. This is the first time that activity of PPMOs has been tested in sputum.

The subject of a further series is B. multivorans. The series can be described thus: Aerosol PPMO in pulmonary infection model, lung burden. It is filed as in vivo. The settings on record: single 300 μg aerosol dose 6 hours post-infection; CGD mice; 24 hours after infection. On the procedure:
Chronic granulomatous disease (CGD) mice were used as a Bcc infection model. An Aerogen nebulizer was used to deliver either scrambled (Scr) PPMO ([…]) or acpP PPMO (PPMO #15, Table 2C, 300 μg or 30 μg) as a one-time dose 6 hours post-infection. Mice were euthanized 24 hours after infection and lung burden was determined as CFU/g.
Delivering PPMOs directly to the lung in the setting of chronic pulmonary infections would be useful. Chronic granulomatous disease (CGD) mice were used as a Bcc infection model. These mice develop significant morbidity and mortality when infected with various Bcc strains. Mice were infected intranasally with a clinical B. multivorans isolate (FIG. 15). An Aerogen nebulizer was used to deliver either scrambled (Scr) PPMO (300 μg) or acpP PPMO (PPMO #15, 300 μg or 30 μg) as a one-time dose 6 hours post-infection. The acpP-targeted PPMO has the following sequence: GTCCATTACCC (SEQ ID NO: 25). The PPMO was conjugated at its 5′ end to the C-terminal β-alanine residue of (RFF)3RXB (SEQ ID NO: 41). Mice were euthanized 24 hours after infection and lung burden was determined. The single 300 μg dose of the acpP PPMO reduced the lung burden by 93% and was a statistically significant decrease. Aerosol delivery of PPMOs is a viable therapeutic strategy and importantly, this is the first time that nebulized delivery of Bcc PPMOs has been attempted.

The test system of another series is 39 Bcc clinical isolates. Kind of series: PPMO MIC against a panel of 39 Bcc clinical isolates. The settings on record: panel of 39 isolates; FIG. 10. The format is cell-based, Burkholderia cepacia complex. The method, then:
A variety of Bcc isolates were tested, including clinical isolates obtained from various body sites with varying levels of antibiotic resistance. The strain bank included 39 isolates that comprised the most frequently encountered species that have been reported to cause human disease. […] All 6 of these PPMOs targeted AcpP (an acyl carrier protein associated with fatty acid biosynthesis). Differences in the 6 PPMOs related to alternative positioning sites on the target mRNA.

For series [3], the system named is B. cenocepacia K56-2. The series can be described thus: 24 hour growth with acpP PPMOs (bactericidal test). It is filed as cell-based. The settings on record: 16 μM, FIG. 11 Panel A. The method, then: (§1) Two different isolates of B. cenocepacia were incubated for 24 hours in the presence or absence of different acpP PPMOs. All three acpP PPMOs caused a significant reduction of growth in the clinical CF isolate B. cenocepacia K56-2 (Panel A) and this effect was also seen for the pan-resistant strain B. cenocepacia H14277 (Panel B).
(§2) Many members of the Bcc are intrinsically antibiotic resistant making treatment difficult. B. cenocepacia is one of the most common species encountered by cystic fibrosis (CF) patients. Two different isolates of B. cenocepacia were incubated for 24 hours in the presence or absence of different acpP PPMOs (FIG. 11).

The subject of the next series is B. cenocepacia HI4277. The series can be described thus: 24 hour growth with acpP PPMOs (bactericidal test), pan-resistant strain. It is filed as cell-based. The settings on record: FIG. 11 Panel B. The method, then:
as §1, §2

Another series relates to B. cenocepacia H14277. Kind of series: PPMO MIC, pan-resistant strain (FIG. 10). It is filed as cell-based. The method, then: In B. cenocepacia K56-2 (a genome-sequenced clinical CF isolate; Panel A) all three PPMOs caused a significant reduction of growth with one PPMO (PPMO #19; SEQ ID NO: 27; 16 μM) causing>3-log reduction of growth compared to the starting inoculum, a strong bactericidal effect. Importantly, this effect was seen even in pan-resistant strains of B. cenocepacia (HI4277, a pan-resistant outbreak isolate from CF patients; FIG. 11, Panel B). […] The MIC of PPMO #19 was 8 μM in H14277 (FIG. 10), illustrating that PPMOs' ability to inhibit growth is not dependent on the underlying level of antibiotic resistance in any particular strain, an important finding with positive implications for this approach.

For a further series, the system named is B. cenocepacia J2315. Kind of series: MBEC peg biofilm assay, crystal violet and confocal microscopy. The format is cell-based. The settings on record: 10 μM. On the procedure: B. cenocepacia J2315 was grown utilizing MBEC biofilm assay plates for 48 hours in the presence of either acpP PPMO (10 μM), scrambled PPMO (10 μM), peptide or media alone. Biofilm production was measure utilizing a crystal violet method.
The pegs were moved to fresh media containing either nothing, the Scrambled (Scr) control PPMO at 10 μM concentration, or the acpP PPMO at 10 μM concentration. The MBEC pegs were incubated for another 48 hours and then stained with fluorescent green peanut-agglutinin stain for the biofilm and imaged on confocal microscopy.
The formation of biofilm is a significant virulence trait and is utilized by both P. aeruginosa and the Bcc. Bcc biofilms were grown and PPMOs were tested for their ability to both prevent biofilm formation and to deconstruct existing biofilms. B. cenocepacia J2315 (a genome sequenced, epidemic CF isolate) was grown utilizing MBEC biofilm assay plates which contain a peg that grows reproducible biofilms from day to day. J2315 was grown for 48 hours in the presence of either acpP PPMO (10 μM), scrambled PPMO (10 μM), peptide or media alone (FIG. 13). The acpP-targeted PPMO (PPMO #19) has the following sequence: CCATTACCCCT (SEQ ID NO: 27). The PPMO was conjugated at its 5′ end to the beta-alanine residue of (RFF)3RXB (SEQ ID NO: 41). Biofilm production was measured utilizing a crystal violet method. […]

{TEG} = triethylene glycol 5' moiety of the PMO, as defined in the publication

In the case of `C[C@@H](O)[C@H]1C(=O)N2C(C(=O)O)=C(S[C@@H]3CN[C@H](C(=O)N(C)C)C3)[C@H](C)[C@H]12` [meropenem], the MIC in the series on Klebsiella pneuomoniae was approximately 64 µM.
Regarding “PPMO #5: adeA-targeted PMO ATA CTG TCC AA (SEQ ID NO: 15); 5′ TEG; 3′ (RXR)4XB- peptide (antisense ATACTGTCCAA; all phosphorodiamidate morpholino (PMO), 5' {TEG}; 3' end conjugated to (RXR)4XB peptide via beta-alanine)”, in series [1] (FIG. 2), the MIC of gentamicin entry is “significantly reduced”. The MIC of tobramycin entry in series [1] (FIG. 3) is reported as “significantly reduced”. Also, in series [1] (FIG. 4), the MIC of tetracycline result is reported as “significantly reduced”.
As to “PPMO #15: acpP-targeted PMO GTCCATTACCC (SEQ ID NO: 25); 5′ (RFF)3RXB- peptide; 3′ H (all phosphorodiamidate morpholino (PMO); 5' end conjugated to (RFF)3RXB peptide via beta-alanine, further chemistry not fully specified)”, the “reduction in CFU/ml compared to no treatment control” value in the series on B. cenocepacia K56-2 [2] (10 μM dosing at 2, 8 and 12 hours, by 24-hours) is recorded as “approximately 2 log”; in the series with B. cenocepacia K56-2 [2] (20 μM dosing at 2, 8 and 12 hours, 24 hours), more than 3 log. Moreover, the “time at which the reduction was apparent” value worked out at 12 h in the series with B. cenocepacia K56-2 [2] (10 μM group) and 8 h with B. cenocepacia K56-2 [2] (20 μM group). Further, the “reduced the lung burden” value with B. multivorans is 93%.
In the case of “PPMO #19: acpP-targeted PMO CCATTACCCCT (SEQ ID NO: 27); 5′ (RFF)3RXB- peptide; 3′ H (all phosphorodiamidate morpholino (PMO); 5' end conjugated to (RFF)3RXB peptide via beta-alanine, further chemistry not fully specified)”, the 75% effect concentration (IC75) with 39 Bcc clinical isolates worked out at 4 µM. Also, the “reduction of growth compared to the starting inoculum” value in the series with B. cenocepacia K56-2 [3] was more than 3 log. For the same compound, the bactericidal effect entry with B. cenocepacia HI4277 is listed as “bactericidal”. Moreover, the MIC against B. cenocepacia H14277 stood at 8 µM. The “reduced biofilm formation compared to controls” value with B. cenocepacia J2315 (48 hours, crystal violet, FIG. 13) was more than 50%. Moreover, in the series with B. cenocepacia J2315 (48 h biofilm then 48 hours more, confocal microscopy and crystal violet, FIG. 14C), the “amount of existing biofilm present” value is listed as “significantly reduced”.
